Molecular target: human GPR40 receptor (Homo sapiens, UniProt O14842)
Assay: Assay I: IP1 accumulation (IPOne HTRF) in 1321N1 cells stably expressing human GPR40
Type: cell-based
Conditions: 1321N1 cells expressing human GPR40, stimulation 1 hour at 37° C., 10% CO2, final LiCl 50 mM
Method: IP1 accumulation measurements using the IPOne assay system—1321N1 cells stably expressing human GPR40 receptor (Euroscreen, Belgium) are seeded 24 h before the assay in black clear-bottom collagen-coated 384-well plates in culture medium containing 10% FCS, 1% Na-Pyruvate and 400 μg/mL G418. IP1 is assayed according to the Manufacturers description (Cisbio Bioassays, France). In brief, the assay is started by substitution of the culture medium by stimulation buffer (Hepes 10 mM, CaCl2 1 mM, MgCl2 0.5 mM, KCl 4.2 mM, NaCl 146 mM and glucose 5.5 mM, pH 7.4) without LiCl. Cells are stimulated for 1 hour at 37° C., 10% CO2 by addition of the compounds that are diluted in stimulation buffer containing LiCl yielding a final LiCl concentration of 50 mM. Assays are stopped by adding HTRF-conjugates (IP1-d2 and Anti-IP1 cryptate Tb) and lysis buffer, provided by the manufacturer. After an incubation time of 1 hour at room temperature plates are measured using an EnVision™, Perkin Elmer. The obtained fluorescence ratios at 665/615 nM are then used to calculate the pEC50 values using GraphPad Prism 5 (Graphpad Software Inc, USA) by interpolation using an IP1 reference curve and subsequent sigmoidal curve fitting allowing for a variable hill slope.

Chain of human GPR40 receptor (O14842 whole entry): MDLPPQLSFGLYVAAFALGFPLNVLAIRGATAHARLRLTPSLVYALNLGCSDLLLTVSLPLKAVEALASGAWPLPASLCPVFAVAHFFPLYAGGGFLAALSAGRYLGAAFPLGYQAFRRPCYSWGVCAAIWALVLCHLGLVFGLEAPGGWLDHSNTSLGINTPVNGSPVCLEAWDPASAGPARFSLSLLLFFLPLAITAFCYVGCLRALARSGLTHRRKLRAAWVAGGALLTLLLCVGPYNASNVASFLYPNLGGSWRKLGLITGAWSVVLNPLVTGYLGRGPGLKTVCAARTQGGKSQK

Row | Compound | EC50 [nM]
1 | CCS(=O)(=O)N1CC(COc2cc(C)c(-c3ccc(F)c4c3CC[C@H]4Oc3ccc4c(c3)OC[C@H]4CC(=O)O)c(C)c2)C1 [Example 30, 2-((S)-6-((R)-4-(4-((1-(Ethylsulfonyl)azetidin-3-yl)methoxy)-2,6-dimethylphenyl)-7-fluoro-2,3-dihydro-1H-inden-1-yloxy)-2,3-dihydrobenzofuran-3-yl)acetic acid] | 7
2 | Cc1cc(OCC2CN(S(=O)(=O)C(C)C)C2)cc(C)c1-c1ccc(F)c2c1CC[C@H]2Oc1ccc2c(c1)OC[C@H]2CC(=O)O [Example 31, 2-((S)-6-((R)-7-Fluoro-4-(4-((1-(isopropylsulfonyl)azetidin-3-yl)methoxy)-2,6-dimethylphenyl)-2,3-dihydro-1H-inden-1-yloxy)-2,3-dihydrobenzofuran-3-yl)acetic acid] | 17
3 | Cc1cc(OC2CCS(=O)(=O)CC2)cc(C)c1-c1ccc(F)c2c1CC[C@H]2Oc1ccc2c(c1)OC[C@H]2CC(=O)O [Example 32, 2-((S)-6-((R)-4-(2,6-Dimethyl-4-(1,1-dioxo-tetrahydro-2H-thiopyran-4-yloxy)phenyl)-7-fluoro-2,3-dihydro-1H-inden-1-yloxy)-2,3-dihydrobenzofuran-3-yl)acetic acid] | 26
4 | Cc1cc(O[C@H]2C[C@@H](N(C)S(C)(=O)=O)C2)cc(C)c1-c1ccc(F)c2c1CC[C@H]2Oc1ccc2c(c1)OC[C@H]2CC(=O)O [Example 33, 2-((S)-6-((R)-4-(2,6-Dimethyl-4-((1s,3S)-3-(N-methylmethylsulfonamido)cyclobutoxy)phenyl)-7-fluoro-2,3-dihydro-1H-inden-1-yloxy)-2,3-dihydrobenzofuran-3-yl)acetic acid] | 12
5 | Cc1cc(O[C@H]2CCN(S(C)(=O)=O)C2)cc(C)c1-c1ccc(F)c2c1CC[C@H]2Oc1ccc2c(c1)OC[C@H]2CC(=O)O [Example 34, 2-((S)-6-((R)-4-(2,6-Dimethyl-4-((S)-1-(methylsulfonyl)pyrrolidin-3-yloxy)phenyl)-7-fluoro-2,3-dihydro-1H-inden-1-yloxy)-2,3-dihydrobenzofuran-3-yl)acetic acid] | 11
6 | Cc1cc(OCC2CCN(S(C)(=O)=O)CC2)cc(C)c1-c1ccc(F)c2c1CC[C@H]2Oc1ccc2c(c1)OC[C@H]2CC(=O)O [Example 35, 2-((S)-6-((R)-4-(2,6-Dimethyl-4-((1-(methylsulfonyl)piperidin-4-yl)methoxy)phenyl)-7-fluoro-2,3-dihydro-1H-inden-1-yloxy)-2,3-dihydrobenzofuran-3-yl)acetic acid] | 57
7 | Cc1c(OC2CCS(=O)(=O)CC2)cccc1-c1ccc(F)c2c1CC[C@H]2Oc1ccc2c(c1)OC[C@H]2CC(=O)O [Example 38, ((S)-6-{(R)-4-[3-(1,1-Dioxo-hexahydro-1-thiopyran-4-yloxy)-2-methyl-phenyl]-7-fluoro-indan-1-yloxy}-2,3-dihydro-benzofuran-3-yl)-acetic acid] | 76
8 | Cc1cc(OCC2(C)CN(S(C)(=O)=O)C2)cc(C)c1-c1ccc(F)c2c1CC[C@H]2Oc1ccc2c(c1)OC[C@H]2CC(=O)O [Example 39, ((S)-6-{(R)-7-Fluoro-4-[4-(1-methanesulfonyl-3-methyl-azetidin-3-ylmethoxy)-2,6-dimethyl-phenyl]-indan-1-yloxy}-2,3-dihydro-benzofuran-3-yl)-acetic acid] | 8
9 | COCCCS(=O)(=O)c1cc(C)c(-c2ccc(F)c3c2CC[C@H]3Oc2ccc3c(c2)OC[C@H]3CC(=O)O)c(C)c1 [Example 53, ((S)-6-{(R)-7-Fluoro-4-[4-(3-methoxy-propane-1-sulfonyl)-2,6-dimethyl-phenyl]-indan-1-yloxy}-2,3-dihydro-benzofuran-3-yl)-acetic acid] | 1220
10 | Cc1cc(OCCCS(C)(=O)=O)cc(C)c1-c1ccc(F)c2c1CC[C@H]2Oc1ccc2c(c1)OC[C@H]2CC(=O)O [Example 57, 2-((S)-6-((R)-4-(2,6-Dimethyl-4-(3-(methylsulfonyl)propoxy)phenyl)-7-fluoro-2,3-dihydro-1H-inden-1-yloxy)-2,3-dihydrobenzofuran-3-yl)acetic acid] | 26
11 | Cc1c(OCCCS(C)(=O)=O)cccc1-c1ccc(F)c2c1CC[C@H]2Oc1ccc2c(c1)OC[C@H]2CC(=O)O [Example 58, 2-((3S)-6-((1R)-7-Fluoro-4-(2-methyl-3-(3-(methylsulfonyl)propoxy)phenyl)-2,3-dihydro-1H-inden-1-yloxy)-2,3-dihydrobenzofuran-3-yl)acetic acid] | 58
12 | Cc1c(C(N)=O)cccc1-c1ccc(F)c2c1CC[C@H]2Oc1ccc2c(c1)OC[C@H]2CC(=O)O [Example 59, 2-((3S)-6-((1R)-4-(3-Carbamoyl-2-methylphenyl)-7-fluoro-2,3-dihydro-1H-inden-1-yloxy)-2,3-dihydrobenzofuran-3-yl)acetic acid] | 117
13 | Cc1cc(C(N)=O)cc(C)c1-c1ccc(F)c2c1CC[C@H]2Oc1ccc2c(c1)OC[C@H]2CC(=O)O [Example 60, 2-((S)-6-((R)-4-(4-Carbamoyl-2,6-dimethylphenyl)-7-fluoro-2,3-dihydro-1H-inden-1-yloxy)-2,3-dihydrobenzofuran-3-yl)acetic acid] | 26
14 | Cc1cc(C(=O)N(C)C)cc(C)c1-c1ccc(F)c2c1CC[C@H]2Oc1ccc2c(c1)OC[C@H]2CC(=O)O [Example 61, 2-((S)-6-((R)-4-(4-(Dimethylcarbamoyl)-2,6-dimethylphenyl)-7-fluoro-2,3-dihydro-1H-inden-1-yloxy)-2,3-dihydrobenzofuran-3-yl)acetic acid] | 51
15 | CNC(=O)c1cc(C)c(-c2ccc(F)c3c2CC[C@H]3Oc2ccc3c(c2)OC[C@H]3CC(=O)O)c(C)c1 [Example 62, 2-((S)-6-((R)-4-(2,6-Dimethyl-4-(methylcarbamoyl)phenyl)-7-fluoro-2,3-dihydro-1H-inden-1-yloxy)-2,3-dihydrobenzofuran-3-yl)acetic acid] | 11
16 | Cc1cc(C(=O)N2CCOCC2)cc(C)c1-c1ccc(F)c2c1CC[C@H]2Oc1ccc2c(c1)OC[C@H]2CC(=O)O [Example 63, 2-((S)-6-((R)-4-(2,6-Dimethyl-4-(morpholine-4-carbonyl)phenyl)-7-fluoro-2,3-dihydro-1H-inden-1-yloxy)-2,3-dihydrobenzofuran-3-yl)acetic acid] | 38
17 | Cc1cc(OCCNC(=O)OC(C)(C)C)cc(C)c1-c1ccc(F)c2c1CC[C@H]2Oc1ccc2c(c1)OC[C@H]2CC(=O)O [Example 65, 2-((S)-6-((R)-4-(4-(2-(tert-Butoxycarbonylamino)ethoxy)-2,6-dimethylphenyl)-7-fluoro-2,3-dihydro-1H-inden-1-yloxy)-2,3-dihydrobenzofuran-3-yl)acetic acid] | 34
18 | COc1cc(COc2cc(C)c(-c3ccc(F)c4c3CC[C@H]4Oc3ccc4c(c3)OC[C@H]4CC(=O)O)c(C)c2)ccn1 [Example 147, 2-((S)-6-((R)-7-fluoro-4-(4-((2-methoxypyridin-4-yl)methoxy)-2,6-dimethylphenyl)-2,3-dihydro-1H-inden-1-yloxy)-2,3-dihydrobenzofuran-3-yl)acetic acid] | 2
19 | Cc1cc(OCc2ccnn2C)cc(C)c1-c1ccc(F)c2c1CC[C@H]2Oc1ccc2c(c1)OC[C@H]2CC(=O)O [Example 151, 2-((S)-6-((R)-4-(2,6-dimethyl-4-((1-methyl-1H-pyrazol-5-yl)methoxy)phenyl)-7-fluoro-2,3-dihydro-1H-inden-1-yloxy)-2,3-dihydrobenzofuran-3-yl)acetic acid] | 3
